The record followed here is ChEMBL document CHEMBL3525951, “Reevaluation of the microsomal metabolism of montelukast: major contribution by CYP2C8 at clinically relevant concentrations” (Drug Metab Dispos, 2011).

Data set [1] addresses T1, Cytochrome P450 2C8 (Homo sapiens, UniProt P10632).
T1 sequence (P10632 whole entry): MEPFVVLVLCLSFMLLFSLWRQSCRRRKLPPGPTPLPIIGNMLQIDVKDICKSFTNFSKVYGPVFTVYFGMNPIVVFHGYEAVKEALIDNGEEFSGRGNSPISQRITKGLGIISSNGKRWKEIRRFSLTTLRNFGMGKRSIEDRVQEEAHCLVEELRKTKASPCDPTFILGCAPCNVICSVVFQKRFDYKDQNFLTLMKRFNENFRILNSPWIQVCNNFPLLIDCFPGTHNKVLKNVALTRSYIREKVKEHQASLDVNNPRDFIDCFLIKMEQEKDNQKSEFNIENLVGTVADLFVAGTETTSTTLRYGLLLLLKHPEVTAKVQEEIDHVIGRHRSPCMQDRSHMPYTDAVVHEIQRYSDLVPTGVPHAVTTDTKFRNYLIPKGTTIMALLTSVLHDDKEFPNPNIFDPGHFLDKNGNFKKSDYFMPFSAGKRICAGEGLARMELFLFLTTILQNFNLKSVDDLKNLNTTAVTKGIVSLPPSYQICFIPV
As to the kind of experiment: Activity of recombinant human CYP2C8 expressed in microsomes isolated from baculovirus infected insect cell assessed as enzyme-mediated compound formation treated with montelukast at 0.02 to 0.1 uM after 3 mins by LC-MS analysis. In kind it is ADME. Conditions: 0.05 h.

The target in data set [2] is T1, Cytochrome P450 2C8. As to the kind of experiment: Activity of recombinant human CYP2C8 expressed in microsomes isolated from baculovirus infected insect cell assessed as enzyme-mediated 2-(2-((R)-3-((1-(carboxymethyl)cyclopropyl)methylthio)-3-(3-(2-(7-chloroquinolin-2-yl)vinyl)phenyl)propyl)phenyl)-2-hydroxypropanoic acid formation at 0.02 uM after 30 mins by LC-MS analysis. The format is ADME. Conditions: 0.5 h.

A further data set has as its target Cytochrome P450 2E1 (Homo sapiens, UniProt P05181). Kind of data set: Activity of recombinant human CYP2E1 expressed in microsomes isolated from baculovirus infected insect cell assessed as enzyme-mediated 2-(2-((R)-3-((1-(carboxymethyl)cyclopropyl)methylthio)-3-(3-(2-(7-chloroquinolin-2-yl)vinyl)phenyl)propyl)phenyl)-2-hydroxypropanoic acid formation at 1 uM after 30 mins by LC-MS analysis. Conditions: 0.5 h. In kind it is ADME.

The test system of data set [3] is Liver microsome. Kind of data set: Drug metabolism in human liver microsomes assessed as 2-(1-(((1R)-1-(3-(2-(7-chloroquinolin-2-yl)vinyl)phenyl)-3-hydroxy-3-(2-(2-hydroxypropan-2-yl)phenyl)propylthio)methyl)cyclopropyl)acetic acid formation at 0.4 uM after 15 mins by LC-MS analysis in presence of CYP3A4 inhibitor ketoconazole and troleandomycin. The note with it: 0.25 h. In kind it is ADME.

In data set [4] the test system is Liver microsome. As to the kind of experiment: Drug metabolism in human liver microsomes assessed as 2-(1-(((1R)-1-(3-(2-(7-chloroquinolin-2-yl)vinyl)phenyl)-3-hydroxy-3-(2-(2-hydroxypropan-2-yl)phenyl)propylthio)methyl)cyclopropyl)acetic acid formation at 0.02 to 0.4 uM preincubated for 3 mins followed by beta-NADPH addition by LC-MS analysis. In kind it is ADME.

Data set [5] relates to Liver microsome. Kind of data set: Drug metabolism in human liver microsomes assessed as 2-(2-((R)-3-((1-(carboxymethyl)cyclopropyl)methylthio)-3-(3-(2-(7-chloroquinolin-2-yl)vinyl)phenyl)propyl)phenyl)-2-hydroxypropanoic acid formation at 0.02 to 0.4 uM preincubated for 3 mins followed by beta-NADPH addition by LC-MS analysis. In kind it is ADME. (Liver microsomes are a subcellular fraction often used to study metabolism.)

The test system of data set [6] is Liver microsome. As to the kind of experiment: Drug metabolism in human liver microsomes assessed as (R)-2-(1-((1-(3-(2-(7-chloroquinolin-2-yl)vinyl)phenyl)-3-(4-hydroxy-2-(2-hydroxypropan-2-yl)phenyl)propylthio)methyl)cyclopropyl)acetic acid formation at 0.4 uM after 15 mins by LC-MS analysis in presence of CYP2C8 inhibitor gemfibrozil 1-O-beta glucuronide, CYP2A6 inhibitor 8-methoxy-psoralen and DDC. Conditions: 0.25 h. In kind it is ADME.

Data set [7] deals with Liver microsome. As to the kind of experiment: Drug metabolism in human liver microsomes assessed as (R)-2-(1-((1-(3-(2-(7-chloroquinolin-2-yl)vinyl)phenyl)-3-(4-hydroxy-2-(2-hydroxypropan-2-yl)phenyl)propylthio)methyl)cyclopropyl)acetic acid formation at 0.02 to 0.4 uM preincubated for 3 mins followed by beta-NADPH addition by LC-MS analysis. In kind it is ADME.
The test system of another data set is Plasma. Kind of data set: Unbound plasma concentration in human at 10 mg, po. In kind it is ADME, cell-free.
Data set [8] in a line: Cmax in human at 10 mg, po. The format is ADME, organism-based. Further details: dose 10 mg, route oral. The note with it: in vivo.
Data set [9] relates to Liver microsome. As to the kind of experiment: Drug metabolism in human liver microsomes assessed as 2-(1-(((S)-1-(3-(2-(7-chloroquinolin-2-yl)vinyl)phenyl)-3-(2-(2-hydroxypropan-2-yl)phenyl)propylsulfinyl)methyl)cyclopropyl)acetic acid formation at 0.02 to 0.4 uM preincubated for 3 mins followed by beta-NADPH addition by LC-MS analysis. In kind it is ADME.
The subject of data set [10] is Liver microsome. Kind of data set: Drug metabolism in human liver microsomes assessed as 2-(1-(((1R)-1-(3-(2-(7-chloroquinolin-2-yl)vinyl)phenyl)-3-(2-(1,2-dihydroxypropan-2-yl)phenyl)propylthio)methyl)cyclopropyl)acetic acid formation at 0.02 to 0.4 uM preincubated for 3 mins followed by beta-NADPH addition by LC-MS analysis. The format is ADME.
The subject of data set [11] is Liver microsome. Kind of data set: Drug metabolism in human liver microsomes assessed as 2-(1-(((1R)-1-(3-(2-(7-chloroquinolin-2-yl)vinyl)phenyl)-3-hydroxy-3-(2-(2-hydroxypropan-2-yl)phenyl)propylthio)methyl)cyclopropyl)acetic acid formation at 0.1 uM after 12 mins by LC-MS analysis in presence of 2-(1-(((S)-1-(3-(2-(7-chloroquinolin-2-yl)vinyl)phenyl)-3-(2-(2-hydroxypropan-2-yl)phenyl)propylsulfinyl)methyl)cyclopropyl)acetic acid. In kind it is ADME. Conditions: 0.2 h.

A short description of data set [12]: Oral bioavailability in human at 10 mg administered through tablet. In kind it is ADME, organism-based. The note with it: in vivo.

Cytochrome P450 2E1, sequence (P05181 whole entry): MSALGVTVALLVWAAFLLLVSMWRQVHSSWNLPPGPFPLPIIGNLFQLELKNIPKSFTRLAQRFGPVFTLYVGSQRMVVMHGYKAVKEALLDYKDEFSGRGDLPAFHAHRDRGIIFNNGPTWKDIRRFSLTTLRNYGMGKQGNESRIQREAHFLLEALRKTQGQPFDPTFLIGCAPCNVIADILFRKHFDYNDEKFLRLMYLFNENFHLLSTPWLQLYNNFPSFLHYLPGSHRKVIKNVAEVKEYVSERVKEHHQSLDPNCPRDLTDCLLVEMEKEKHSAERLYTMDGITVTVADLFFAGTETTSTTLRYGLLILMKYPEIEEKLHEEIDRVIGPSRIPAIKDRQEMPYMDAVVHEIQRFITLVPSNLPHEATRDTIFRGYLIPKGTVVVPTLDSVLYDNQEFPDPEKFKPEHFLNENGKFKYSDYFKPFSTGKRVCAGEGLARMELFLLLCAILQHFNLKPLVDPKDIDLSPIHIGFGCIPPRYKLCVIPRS

Take `CC(O)(CO)c1ccccc1CC[C@@H](SCC1(CC(=O)O)CC1)c1cccc(/C=C/c2ccc3ccc(Cl)cc3n2)c1` (some centres undefined): the Drug metabolism result on Cytochrome P450 2C8 [1] is listed as “metabolite_detected”; at Cytochrome P450 2C8 [2], “metabolite_detected”; on Cytochrome P450 2E1, “metabolite_not_detected”.

`CC(C)(O)c1ccccc1CC[C@@H](SCC1(CC(=O)[O-])CC1)c1cccc(/C=C/c2ccc3ccc(Cl)cc3n2)c1.[Na+]` [MONTELUKAST SODIUM]: the Drug metabolism entry in the data set on Liver microsome [3] is “metabolite_not_detected”; in the data set with Liver microsome [4], “metabolite_detected”; in the data set on Liver microsome [5], “metabolite_detected”; with Liver microsome [6], “metabolite_not_detected”; with Liver microsome [7], “metabolite_detected”; in the data set with Liver microsome [9], “metabolite_detected”. Also, the Drug metabolism result in the data set with Liver microsome [10] and with Liver microsome [11] was “metabolite_detected” in each case. Further, the “Cp(f)” value with Plasma amounted to 3 nM. In addition, the Cmax (as a rule, the highest concentration seen after dosing) in data set [8] was determined as 500 ng/mL. For the same compound, the bioavailability (commonly the share of a dose that reaches the circulation, judged against a reference dose that is usually intravenous) in data set [12] worked out at 60%.
